Laboratory results published in article PMC9585585, “Discovery of Small-Molecule Allosteric Inhibitors of PfATC as Antimalarials” (Journal of the American Chemical Society, 2022).
Like-named read-outs stand apart in the source and are kept apart here.

Key:
PfATC = PfATC (Plasmodium falciparum, UniProt A0A5K1K910); assay: biochemical
Protocol: Following washing with Lysis buffer
Excess imidazole was removed and the His-tag was cleaved
400Then, the sample was loaded onto a 5 ml HiTrap SP HP column (GE Healthcare, USA) and
410PfATC activity assay. Enzymatic reactions were performed in a total volume of 150 µL in 50 mM
Small-molecule dose-response curves were
The reactions were initiated by adding CP and quenched after 10 min with
After plates were sealed with transparent sealing
(§1) 420tape to prevent evaporation and incubated overnight in the dark place at room temperature. After
Analyses were performed using
The enzymatic assay was performed as described herein above for
Briefly, the reaction was carried out at room
The reaction was initiated by
Then the plate was covered by sealing
(§2) 430tape and kept in dark place at room temperature and then heated to 95 °C for 15min in dark and kept

HsATC = biological target: T1, HsATC (Homo sapiens, UniProt P27708); assay: HsATC activity assay; format: biochemical; settings: in vitro activity assay, 10 mM L-aspartate, 5 mM carbamoyl phosphate; read-out: HsATC IC50
T1 construct: ATCase domain of CAD; made in house; host or cells: E. coli BL21 star
T1 sequence (P27708 1918-2225 limits assumed): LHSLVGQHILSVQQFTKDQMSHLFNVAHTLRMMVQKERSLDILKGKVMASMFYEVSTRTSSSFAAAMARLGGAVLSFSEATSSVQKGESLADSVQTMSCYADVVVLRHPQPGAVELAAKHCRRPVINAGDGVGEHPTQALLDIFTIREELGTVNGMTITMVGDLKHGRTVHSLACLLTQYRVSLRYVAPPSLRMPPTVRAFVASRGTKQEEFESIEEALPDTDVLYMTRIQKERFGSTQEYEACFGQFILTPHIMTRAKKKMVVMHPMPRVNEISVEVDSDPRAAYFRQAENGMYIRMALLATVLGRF
Protocol: 417100μL of stop mix (two volumes of Antipyrine (26.5 mM 2,3-Dimethyl-1-phenyl-3-pyrazolin-5-
418one in 50% (v/v) sulfuric acid) and one volume of 2,3-Butanedione monoxime (80 mM 2,3-
419Butanedione monoxime in 5% (v/v) acetic acid). After plates were sealed with transparent sealing
as §1
421incubation, the plates were heated at 95 °C for 15 min in dark place, and kept for 30 min before
422measuring at 466 nm suing a Synergy H1 Hybrid Reader (BioTek). Analyses were performed using
423Microsoft Excel and Graph Pad Prism.
424HsATC activity assay. The enzymatic assay was performed as described herein above for
425enzymatic assay of PfATC with minor modifications. Briefly, the reaction was carried out at room
426temperature in a total volume of 150 μl of 10 mM L-aspartate and 5 mM carbamoyl phosphate
427saturated substrate solution in 50 mM Tris-Acetate buffer pH 8.3. hsATC was pre-incubated with
428inhibitor and L-Asp for 10 min at room temperature on a shaker. The reaction was initiated by
429adding CP and stopped after 5 min with […] color mix. Then the plate was covered by sealing
as §2
431the plate in the dark for another 30 min before measuring the absorbance at 466 nm suing a Synergy
432H1 Hybrid Reader (BioTek). […]

[1] = in vitro activity assay, PfATC 50 nM, 2 mM CP, 1 mM aspartate, read-out: PfATC IC50
[2] = in vitro enzyme assay, PfATC 50 nM, n = 3, read-out: IC50 against PfATC

PfATC, sequence (A0A5K1K910 entry or part of it): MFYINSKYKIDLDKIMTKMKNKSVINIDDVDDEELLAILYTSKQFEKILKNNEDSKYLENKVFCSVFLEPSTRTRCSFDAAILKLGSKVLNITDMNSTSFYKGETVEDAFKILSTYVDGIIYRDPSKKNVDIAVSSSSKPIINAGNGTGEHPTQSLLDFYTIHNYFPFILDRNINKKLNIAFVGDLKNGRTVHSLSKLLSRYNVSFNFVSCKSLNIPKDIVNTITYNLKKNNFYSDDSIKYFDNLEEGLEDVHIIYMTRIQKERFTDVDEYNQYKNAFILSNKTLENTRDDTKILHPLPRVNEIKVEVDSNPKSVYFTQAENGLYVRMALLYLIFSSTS

COC(=O)c1cc(-c2ccccc2)sc1NC(=O)OC(C)(C)C [BDA-02]
IC50 (PfATC; [1]): 1470 nM | IC50 (HsATC): 1500 nM

CC(C)c1cc(C(=O)NCCc2ccc(O)cc2)c(N)s1 [BDA-61]
IC50 (PfATC; [1]): 1980 nM | IC50 (HsATC): 862 nM

CC(C)(C)OC(=O)Nc1sc(-c2ccc(F)cc2)cc1C(=O)NCCc1ccc(O)cc1 [BDA-54]
IC50 (PfATC; [1]): 845 nM | IC50 (HsATC): 158 nM

CC(C)(C)OC(=O)Nc1sc(-c2cccc(C#N)c2)cc1C(=O)NCCc1ccc(O)cc1 [BDA-53]
IC50 (PfATC; [1]): 2720 nM | IC50 (HsATC): 383 nM

Nc1sc(-c2ccccc2)cc1C(=O)NCCc1ccc(S(N)(=O)=O)cc1 [BDA-07]
IC50 (PfATC; [1]): 996 nM | IC50 (HsATC): 116 nM

CC(C)(C)OC(=O)Nc1sc(-c2ccccc2)cc1C(=O)NCc1ccc(O)cc1 [BDA-30]
IC50 (PfATC; [1]): 2620 nM | IC50 (HsATC): 397 nM

CC(C)(C)OC(=O)Nc1sc(-c2cncc(Cl)c2)cc1C(=O)NCCc1ccc(O)cc1 [BDA-40]
IC50 (HsATC): 11400 nM

CC(C)(C)OC(=O)Nc1sc(-c2ccccc2)cc1C(=O)NCC(c1ccccc1)c1ccccc1 [BDA-39]
IC50 (PfATC; [1]): 5640 nM | IC50 (HsATC): 15400 nM

CC(C)CCNc1sc(-c2ccccc2)cc1C(=O)NCCc1ccccc1 [BDA-12]
IC50 (PfATC; [1]): 159 nM | IC50 (HsATC): 655 nM

CC(C)(C)OC(=O)Nc1sc(-c2ccccc2)cc1C(=O)NCc1ccccc1 [BDA-34]
IC50 (PfATC; [1]): 849 nM | IC50 (HsATC): 212 nM

CC(C)(C)OC(=O)Nc1sc(-c2ccccc2)cc1C(=O)NC1CCN(Cc2ccccc2)CC1 [BDA-38]
IC50 (PfATC; [1]): 805 nM | IC50 (HsATC): 185 nM

CC(C)(C)OC(=O)Nc1sc(Cc2ccccc2)cc1C(=O)NCCc1ccc(O)cc1 [BDA-59]
IC50 (PfATC; [1]): 3110 nM | IC50 (HsATC): 2590 nM

COCCNC(=O)c1cc(-c2ccccc2)sc1N [compound 1]
IC50 (PfATC): 1590 nM

COC(=O)c1cc(-c2ccc3c(c2)OCCO3)sc1NC(=O)OC(C)(C)C [BDA-69]
IC50 (PfATC; [1]): 1050 nM | IC50 (HsATC): 1030 nM

CC(C)c1cc(C(=O)NCCc2ccc(O)cc2)c(NC(=O)OC(C)(C)C)s1 [BDA-62]
IC50 (PfATC; [1]): 2200 nM | IC50 (HsATC): 1120 nM

O=C(NCCc1ccccc1)c1cc(-c2ccccc2)sc1NCc1ncc[nH]1 [BDA-13]
IC50 (PfATC; [1]): 639 nM | IC50 (HsATC): 268 nM

COC(=O)c1c(NC(=O)OC(C)(C)C)sc2c1CCN(Cc1ccccc1)C2 [BDA-64]
IC50 (PfATC; [1]): 86900 nM | IC50 (HsATC): 704000 nM

C#CCNC(=O)c1cc(-c2ccccc2)sc1N [compound 2]
IC50 (PfATC; [2]): 4910 nM

CC(C)(C)OC(=O)Nc1sc(-c2ccccc2)cc1C(=O)N1CCN(c2ccc(O)cc2)CC1 [BDA-63]
IC50 (PfATC; [1]): 1090 nM | IC50 (HsATC): 250 nM

Cc1ccc(-c2cc(C(=O)NCCc3ccc(O)cc3)c(NC(=O)OC(C)(C)C)s2)cc1 [BDA-52]
IC50 (PfATC; [1]): 558 nM | IC50 (HsATC): 119 nM

CC(C)(C)OC(=O)Nc1sc2c(c1C(=O)NCCc1ccc(O)cc1)CCCC2 [BDA-43]
IC50 (PfATC; [1]): 18400 nM | IC50 (HsATC): 2090 nM

N#CC1(C(=O)Nc2sc(-c3ccccc3)cc2C(=O)NCCc2ccc(O)cc2)CC1 [BDA-70]
IC50 (PfATC; [1]): 876 nM | IC50 (HsATC): 556 nM

Cc1c(-c2ccccc2)sc(NC(=O)OC(C)(C)C)c1C(=O)NCCc1ccc(O)cc1 [BDA-49]
IC50 (PfATC; [1]): 5940 nM | IC50 (HsATC): 729 nM

COC(=O)c1cc(-c2ccccc2)sc1N [BDA-01]
IC50 (PfATC; [1]): 1270 nM | IC50 (HsATC): 1540 nM

CC(C)(C)OC(=O)Nc1sc(-c2ccccc2)cc1C(=O)NCCc1ccc(S(N)(=O)=O)cc1 [BDA-06]
IC50 (PfATC; [1]): 1870 nM | IC50 (HsATC): 287 nM

COC(=O)c1c(NC(=O)OC(C)(C)C)sc2c1CCC(c1ccccc1)C2 (centres unmarked) [BDA-65]
IC50 (PfATC; [1]): 6420 nM | IC50 (HsATC): 5170 nM

CC(C)(C)OC(=O)Nc1sc(-c2ccccc2)cc1C(=O)NCC(=O)c1ccccc1 [BDA-27]
IC50 (PfATC; [1]): 1230 nM | IC50 (HsATC): 369 nM

CCCCNC(=O)c1cc(-c2ccccc2)sc1N [compound 4]
IC50 (PfATC; [2]): 3320 nM

CC(C)(C)OC(=O)Nc1sc(-c2ccccc2)cc1C(=O)N1CCN(c2ccc(F)cc2)CC1 [BDA-10]
IC50 (PfATC; [1]): 5080 nM | IC50 (HsATC): 298 nM

COC(=O)c1c(N)sc2c1CCN(Cc1ccccc1)C2 [BDA-68]
IC50 (HsATC): 58300 nM

CC(C)(C)OC(=O)NCC1CCN(C(=O)c2cc(-c3ccccc3)sc2NC(=O)OC(C)(C)C)CC1 [BDA-09]
IC50 (PfATC; [1]): 241 nM | IC50 (HsATC): 196 nM

CC(C)(C)OC(=O)Nc1sc(-c2cccc(N)c2)cc1C(=O)NCCc1ccc(O)cc1 [BDA-51]
IC50 (PfATC; [1]): 1240 nM | IC50 (HsATC): 226 nM

Nc1sc(-c2ccccc2)cc1C(=O)NCCc1ccccc1 [BDA-05]
IC50 (PfATC; [1]): 1270 nM | IC50 (HsATC): 765 nM

Nc1sc(Cc2ccccc2)cc1C(=O)NCCc1ccc(O)cc1 [BDA-58]
IC50 (PfATC; [1]): 4830 nM | IC50 (HsATC): 1230 nM

COC(=O)c1c(NC(=O)OC(C)(C)C)sc2c1CCCC2 [BDA-67]
IC50 (PfATC; [1]): 1360 nM | IC50 (HsATC): 1010 nM

CC(C)(C)OC(=O)Nc1sc(-c2ccccc2)cc1C(=O)NCCCc1ccccc1 [BDA-26]
IC50 (PfATC; [1]): 576 nM | IC50 (HsATC): 555 nM

CC(C)(C)OC(=O)Nc1sc(-c2ccc3c(c2)OCCO3)cc1C(=O)NCCc1ccc(O)cc1 [BDA-33]
IC50 (PfATC; [1]): 516 nM | IC50 (HsATC): 100 nM

CC(C)(C)OC(=O)Nc1sc(Br)cc1C(=O)NCCc1ccc(O)cc1 [BDA-32]
IC50 (PfATC; [1]): 2760 nM | IC50 (HsATC): 641 nM

CC(C)(C)OC(=O)Nc1sc(-c2ccccc2)c(-c2ccccc2)c1C(=O)NCCc1ccc(O)cc1 [BDA-60]
IC50 (PfATC; [1]): 2010 nM | IC50 (HsATC): 1050 nM

CC(C)(C)OC(=O)Nc1sc(-c2ccccc2)cc1C(=O)NCCc1ccc(O)c(O)c1 [BDA-25]
IC50 (PfATC; [1]): 181 nM | IC50 (HsATC): 403 nM

C=CCNC(=O)c1cc(-c2ccccc2)sc1N [compound 3]
IC50 (PfATC; [2]): 4610 nM

CC(C)(C)OC(=O)Nc1sc(-c2ccccc2)cc1C(=O)NCCN1CCOCC1 [BDA-57]
IC50 (PfATC; [1]): 800 nM | IC50 (HsATC): 381 nM

CC(C)(C)OC(=O)Nc1sc(-c2ccccc2)cc1C(=O)NCCc1ccc(F)cc1 [BDA-28]
IC50 (PfATC; [1]): 1630 nM | IC50 (HsATC): 391 nM

CC(C)(C)OC(=O)Nc1sc(-c2ccccc2)cc1C(=O)O [BDA-03]
IC50 (PfATC; [1]): 1000 nM | IC50 (HsATC): 1630 nM

CC(C)(C)OC(=O)Nc1sc(-c2ccc(Cl)c(Cl)c2)cc1C(=O)NCCc1ccc(O)cc1 [BDA-56]
IC50 (PfATC; [1]): 2220 nM | IC50 (HsATC): 556 nM

O=C(Cc1c[nH]c2ccccc12)Nc1sc(-c2ccccc2)cc1C(=O)NCCc1ccccc1 [BDA-08]
IC50 (PfATC; [1]): 14700 nM

CC(C)(C)OC(=O)Nc1sc(-c2ccccc2)cc1C(=O)Nc1ccccc1 [BDA-31]
IC50 (PfATC; [1]): 1050 nM | IC50 (HsATC): 332 nM

CC(C)(C)OC(=O)NCC(=O)Nc1sc(-c2ccccc2)cc1C(=O)NCCc1ccc(O)cc1 [BDA-17]
IC50 (PfATC; [1]): 1150 nM | IC50 (HsATC): 308 nM

CC(C)(C)OC(=O)Nc1oc(-c2ccc(Cl)cc2)cc1C(=O)NCCc1ccc(O)cc1 [BDA-44]
IC50 (PfATC; [1]): 6110 nM | IC50 (HsATC): 830 nM

CC(C)(C)OC(=O)Nc1sc(-c2cnc(N)nc2)cc1C(=O)NCCc1ccc(O)cc1 [BDA-35]
IC50 (PfATC; [1]): 2080 nM | IC50 (HsATC): 234 nM

CCCNC(=O)c1cc(-c2ccccc2)sc1N [compound 5]
IC50 (PfATC; [2]): 5690 nM

CC(C)(C)OC(=O)Nc1sc2c(c1C(=O)NCCc1ccc(O)cc1)CCN(Cc1ccccc1)C2 [BDA-36]
IC50 (HsATC): 3840 nM
